These results are taken from US10413532B2, “Pharmaceutical compositions containing a PDE4 inhibitor and a PI3 delta or dual PI3 delta-gamma kinase inhibitor” (Rhizen Pharmaceuticals SA, priority 2012, dated 2019).

SMILES strings stand for the structures. Like-named read-outs stand apart in the source and are kept apart here.

Test [1] concerns TNFα. Briefly: LPS induced TNFα in PBMC. It counts as cell-based. As to conditions: 1000 nM alone, LPS 1 μg/ml, 24 h. On the procedure: PBMC (peripheral blood mononuclear cells) from whole blood were isolated by density gradient using Histopaque and incubated with the desired concentration of inhibitor for 15 minutes. LPS (1 μg/ml) was added and then incubated for 24 hours. The supernatant was collected and TNFα estimated using an eBioscience TNFα ELISA kit.
PBMC from whole blood were isolated by density gradient using Histopaque and incubated with the desired concentration of inhibitor for 15 minutes. LPS (1 μg/m1) was added and then incubated for 24 hours. The supernatant was collected and TNFα estimated using an eBioscience TNFα ELISA kit.

In test [2] the test system is macrophage and neutrophil infiltration. Description: Chronic cigarette smoke induced cell infiltration in male Balb/c mice. The format is in vivo. To be noted: alone at 1 mg/kg oral; chronic CS, mouse. The protocol:
Animals were acclimatized for seven days prior to the start of the experiment. Animals were randomly distributed to various groups based on their body weights. Mice were exposed to the mainstream smoke of 4 cigarettes from day 1 to day 11. Exposure to the smoke of each cigarette lasted for […] (each cigarette was completely burned in the first two minutes, followed by an air flow with animal ventilator) and were exposed for the next 20 min with fresh room air. After every second cigarette an additional break of 20 min with exposure to fresh room air was conducted. Control animals were exposed to the room air chamber. Test compound was administered by the oral route from day 6 to day 11 before 30 mins whole body smoke exposure. On day 12, 24 hours after the last cigarette smoke (CS) exposure animals were exsanguinated under anaesthesia, and the trachea was cannulated and the lungs were lavaged with 0.5 ml aliquots of heparinised PBS (1 unit/nil) four times through tracheal cannula (total volume 2 ml). Bronchioalveolar (BAL) collected was stored at 2-8° C. until assayed for total cell and differential leukocyte count. BAL fluid was centrifuged (500×g for 10 min) and the resulting cell pellet was resuspended in 0.5 ml of heparinised saline. The total number of white blood cells was determined in BAL fluid and blood using a blood cell counter and adjusted to 1×10^6 cell/ml. Differential cell count was calculated manually Forty microliters of the cell suspension was centrifuged using cytospin 3 to prepare a cell smear. The cell smear was stained with a blood staining solution for differentiation and microscopically observed by identifying each cell according to its morphological characteristics. The number of each cell type among 300 white blood cells in the cell smear was determined and expressed as a percentage, and the number of neutrophils and macrophages in each BAL fluid were calculated.

The subject of a further test is neutrophil infiltration. Description: Lipopolysaccharide induced pulmonary neutrophilia in female Wistar rats. It counts as in vivo. On the procedure:
After the quarantine period, fasted animals were randomized and divided into groups depending on their body weights. Test compound was prepared as a suspension in a vehicle consisting of 0.5% methylcellulose in which Tween 80 was used as a suspending agent. Compounds or vehicle were administered by oral gavage in a volume of 10 mL/kg. Animals were anaesthetized with ketamine and LPS solution was administered intratracheally 30 minutes after compound administration at a dose of 1 mg/kg. Six hours after LPS instillation, animals were exsanguinated under anaesthesia, and the trachea was cannulated, and lungs were lavaged with 5-ml aliquots of heparinised PBS (1 unit/ml) four times through the tracheal cannula (total volume 20 ml). Bronchioalveolar (BAL) fluid was stored at 2-8° C. until assayed for total cell and differential leukocyte count. BAL fluid was centrifuged (500×g for 10 min) and the resulting cell pellet was resuspended in 0.5 ml of heparinised saline. The total numbers of white blood cells were determined in BAL fluid or blood using a cell counter and were adjusted to 1×10^6 cell/ml. Differential cell count was calculated manually. One hundred microliters of the cell suspension was centrifuged using cytospin 3 to prepare a cell smear. The cell smear was stained with a blood staining solution for differentiation and slides were microscopically observed to identify eosinophils according to their morphological characteristics. The number of each cell type among 300 white blood cells in the cell smear was determined and expressed as a percentage of total cells. The number of eosinophil in BALF was calculated.
The procedure for LPS induced pulmonary neutrophilia in female Wistar rats as described in Example 1 was performed with compound A1 and roflumilast.

In test [3] the test system is macrophage and neutrophil infiltration. Briefly: Acute cigarette smoke induced cell infiltration in male Balb/c mice. As to conditions: acute CS, mouse; for ED50: oral. It counts as in vivo. On the procedure:
Animals were acclimatized for seven days prior to the start of the experiment. Animals were randomly distributed to various groups based on their body weights. On day 1, mice were administered by test compound or vehicle by the oral route and after 30 mins test compound administration animals were placed in a whole body exposure box. The mice were exposed to the mainstream smoke of 6 cigarettes from day 1 to day 4. Exposure to the smoke of each cigarette lasted for 10 min (cigarettes were completely burned in the first two minutes and followed by an air flow with animal ventilator) followed by exposure for the next 20 min with fresh room air. After every second cigarette an additional break of 20 min with exposure to fresh room air was conducted. Control animals were exposed to the room air chamber. From day 1 to day 4 animals were administered test compound by the oral route. On day 5, 24 hours after the last cigarette smoke (CS) exposure. animals were exsanguinated under anaesthesia, and the trachea was cannulated and the lungs were lavaged with 0.5 ml aliquots of heparinised PBS (1 unit/ml) four times through a tracheal cannula (total volume 2 ml). Bronchioalveolar (BAL) collected was stored at 2-8° C. until assayed for total cell and differential leukocyte count. BAL fluid was centrifuged (500×g for 10 min) and the resulting cell pellet was resuspended in 0.5 ml of heparinised saline. The total number of white blood cells was determined in BAL fluid and blood using a blood cell counter and adjusted to 1×10^6 cell/ml. Differential cell count was calculated manually. Forty microliters of the cell suspension was centrifuged using cytospin 3 to prepare a cell smear. The cell smear was stained with a blood staining solution for differentiation and microscopically observed by identifying each cell according to its morphological characteristics. The number of each cell type among 300 white blood cells in the cell smear were determined and expressed as a percentage, and the number of neutrophils and macrophages in each BAL fluid were calculated.
The procedure for acute cigarette smoke induced cell infiltration in male Balb/c mice described in Example 1 was performed with Compound A1 and roflumilast

The test system of another test is elastase. Description: fMLP induced elastase release from human neutrophils. It counts as cell-based. As to conditions: compound alone at 300 nM. On the procedure: Blood was procured from a local blood bank. Neutrophils were obtained using the dextran sedimentation method. Cells were plated at 100,000 cells per well in a 96-well plate, treated with fMLP (1 μM) and N-Succinyl-Ala-Ala-Ala-p-nitroanalide (1 μM) (Sigma) and incubated for 2 h. Intensity of digested substrate after incubation was determined by measuring the absorbance at 405 nm on a Fluostar Omega (BMG Labtech, NC, USA).

The next test concerns MMP-9. Briefly: MMP-9 release from PMA-induced THP-1 cells (gelatin zymography). The format is cell-based, human. To be noted: compound alone at 300 nM. The protocol: Gelatinase activity of MMP-9 was determined by zymography. Proteins in supernatant (after incubation of THP-1 cells with 50 ng PMA for 24 h) were separated on gels containing 0.1% gelatin (Sigma, USA). Gels were re-natured by incubation in 2.5% Triton X-100 for 30 min, incubated overnight in substrate buffer (50 mMTris-HCl, pH 7.5) containing 10 mM CaCl2 and 0.05% ZnCl2 at 37° C. and stained with Coomassie brilliant blue (0.5%). […] Molecular weight markers (Fermentas, Lithuania) were run with each gel. Band intensity was calculated using ImageJ 1.42 (NIH, USA).

The test system of another test is pAkt (S473). Briefly: phospho-Akt (S473) in differentiated U937 cells stimulated with cigarette smoke extract (SDS-PAGE). To be noted: Homo sapiens, U-937; compound alone; differentiated U937, CSE; read-out: IC50 of inhibition of Akt phosphorylation. The format is cell-based. The protocol:
U-937 monocytes were differentiated into macrophages by incubation with 50 ng/ml PMA for 48 h. Cells were trypsinized and plated at a density of 100,000 per well and stimulated with CSE for 2 h in starvation media. Lysates were made using RIPA buffer and run by SDS-PAGE, transferred to PVDF membrane and probed with phospho-Akt (S473) antibody (Cell signaling, USA) followed by anti-rabbit IgG (Cell signaling, USA). Band intensity was calculated using ImageJ 1.42 (NIH, USA).

For test [4], the system named is TNFα. Description: LPS induced TNFα in MH-S (mouse alveolar macrophage) cells. It counts as cell-based. To be noted: 130 nM alone. On the procedure: MH-S represents a mouse alveolar macrophage cell line that secretes copious amounts of TNFα upon induction by LPS. Cells were plated at 150,000 cells per well. 10 nM of Compound A1 (final concentration) was added 15 minutes prior to the addition of roflumilast. LPS (1 μg/ml) was added and then incubated for 4 hours. The supernatant was collected after 20 hours and TNFα was estimated using an ELISA kit.

[5] abbreviates: 3 mg/kg oral, dose-response study.
The mark [6] stands for this setting: combination study, alone at 3 mg/kg.

Consider `C[C@H](Nc1ncnc2[nH]cnc12)c1oc2ccc(F)cc2c(=O)c1-c1cccc(F)c1` [Compound C, (S)-2-(1-(9H-purin-6-ylamino)ethyl)-6-fluoro-3-(3-fluorophenyl)-4H-chromen-4-one], for which the “decrease of TNFα secretion” value with TNFα [1] is 20%. Besides, the “inhibition of macrophage infiltration” value in test [2] is −13.30%; in test [3] (setting [6]) it was 30.01%. Further, the “inhibition of neutrophil infiltration” value is reported as 4.08% in test [2]; 36.56% with neutrophil infiltration (combination study, alone at 1 mg/kg, rat); 41.47% in test [3] (setting [6]). Besides, the “percent inhibition of neutrophil infiltration” value in the test on neutrophil infiltration (0.1 mg/kg oral, rat BAL fluid 6 h after LPS) is 14.15%; in the test with neutrophil infiltration (1 mg/kg oral, dose-response study, rat), 57.76%; with neutrophil infiltration (3 mg/kg oral, rat), 56.93%; with neutrophil infiltration (10 mg/kg oral, rat), 81.55%; in test [3] (1 mg/kg oral), 29.06%; in test [3] (setting [5]), 62.38%. In addition, the “percent inhibition of neutrophil infiltration” value in test [3] (10 mg/kg oral) is listed as 74.25%. In addition, the ED50 with neutrophil infiltration (Neutrophil, oral, rat LPS pulmonary neutrophilia, read-out: 50% inhibition (ED50) dose, neutrophil infiltration) was determined as 1 mg/kg; in test [3] (Macrophage, read-out: 50% inhibition (ED50) dose, macrophage infiltration), 4.4 mg/kg; in test [3] (Neutrophil, read-out: dose of 50% inhibition (ED50) of neutrophil infiltration), 2.1 mg/kg. Besides, the entries for the “percent inhibition of macrophage infiltration” value in test [3] (1 mg/kg oral), in test [3] (setting [5]) and in test [3] (10 mg/kg oral) were 34.84%, 42.09% and 61.77%, respectively.

For the molecule `Cc1ccccc1-n1c(Cn2cnc3c(N)ncnc32)nc2cccc(C)c2c1=O` [Compound B, 2-((6-amino-9H-purin-9-yl)methyl)-5-methyl-3-o-tolylquinazolin-4(3H)-one], the “reduction of elastase release” value with elastase is reported as 10%. Besides, the “effect on MMP-9 release” value in the test on MMP-9 is “no effect”. The IC50 in the test with pAkt (S473) worked out at 0.78 µM.

Take `CCOc1cc([C@@H](CS(C)(=O)=O)N2C(=O)c3cccc(NC(C)=O)c3C2=O)ccc1OC` [aprelimilast, reference compound]: the “decrease in TNFα secretion” value in the test with TNFα [4] is listed as ~10%.
